Patent US10202370B2, “Benzimidazole derivatives as selective proteine kinase inhibitors” (AB SCIENCE, priority 2013, dated 2019)

Target: c-kit WT (Homo sapiens (Human), UniProt P10721)
Test: Proliferation assay (CellTiter-Blue) on BaF3 Kit WT cell line
Format: cell-based
Conditions: BaF3 Kit WT cell line (murine Ba/F3 expressing Human Kit WT, with murine SCF), 48 hours
Protocol: Procedures of C-Kit WT Inhibition Assays:
Colorimetric cell proliferation and viability assay (reagent CellTiter-Blue purchased from Promega cat N°G8081) was performed on BaF3 Kit WT cell line.
A total of 2.10^4 cells/50 μl were seeded per well of a 96-wells plate. Treatment was initiated by addition of a 2× drug solution of ½ serial dilutions ranging from 0 to 10 μM. After incubating for 48 hours at 37° C., 10 μl of a ½ dilution of CellTiter-Blue reagent was added to each well and the plates were returned to the incubator for an additional 4 hours. The fluorescence intensity from the CellTiter-Blue reagent is proportional to the number of viable cells and data were recorded (544Ex/590Em) using a POLARstar OMEGA microplate reader (BMG LabteckSarl). A background control without cells was used as a blank. The positive control of the assay corresponds to the cell proliferation obtained in the absence of drug treatment (100% proliferation). Each sample was done in triplicate. The results were expressed as a percentage of the proliferation obtained in absence of treatment. All drugs were prepared as 20 mM stock solutions in DMSO and conserved at −80° C. Drug dilutions were made fresh in medium before each experiment. A DMSO control was included in each experiment.
The cell line expressing Human Kit WT was derived from the murine IL3-dependent Ba/F3 proB lymphoid cells. Ba/F3 Kit WT cells were maintained in RPMI medium containing 10% FCS and supplemented with 250 ng/ml of recombinant murine SCF.

c-kit WT, sequence (P10721 26-976): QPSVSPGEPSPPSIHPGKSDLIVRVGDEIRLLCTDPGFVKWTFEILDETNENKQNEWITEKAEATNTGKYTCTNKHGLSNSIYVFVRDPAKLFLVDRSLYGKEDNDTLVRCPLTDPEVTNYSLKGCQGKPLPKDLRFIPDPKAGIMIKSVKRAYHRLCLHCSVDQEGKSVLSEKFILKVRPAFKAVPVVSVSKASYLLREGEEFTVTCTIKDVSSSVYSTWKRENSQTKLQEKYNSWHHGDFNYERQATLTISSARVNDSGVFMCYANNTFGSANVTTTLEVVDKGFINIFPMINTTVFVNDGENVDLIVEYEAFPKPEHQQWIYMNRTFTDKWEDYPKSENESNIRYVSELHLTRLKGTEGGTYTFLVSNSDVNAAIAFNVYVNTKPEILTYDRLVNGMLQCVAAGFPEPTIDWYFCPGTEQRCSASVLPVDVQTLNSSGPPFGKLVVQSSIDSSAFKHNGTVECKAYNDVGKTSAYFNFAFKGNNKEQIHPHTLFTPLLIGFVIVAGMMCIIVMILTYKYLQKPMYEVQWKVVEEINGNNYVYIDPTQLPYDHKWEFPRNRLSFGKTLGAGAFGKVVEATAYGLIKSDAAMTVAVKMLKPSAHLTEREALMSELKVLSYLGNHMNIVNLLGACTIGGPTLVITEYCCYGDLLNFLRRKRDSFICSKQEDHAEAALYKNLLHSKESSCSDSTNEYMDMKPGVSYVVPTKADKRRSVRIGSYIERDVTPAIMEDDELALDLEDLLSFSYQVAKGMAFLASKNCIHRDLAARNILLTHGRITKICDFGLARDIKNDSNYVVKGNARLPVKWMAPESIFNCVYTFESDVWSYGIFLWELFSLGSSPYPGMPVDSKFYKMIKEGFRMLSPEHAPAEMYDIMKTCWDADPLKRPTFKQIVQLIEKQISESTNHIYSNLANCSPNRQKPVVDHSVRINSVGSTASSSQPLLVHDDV

| SMILES | IC50 [nM] |
| --- | --- |
| Cc1cc2nc(-c3cccc(N4CCN(C)CC4)c3)[nH]c2cc1Nc1nccc(-c2cccnc2)n1 [Compound 015, {6-Methyl-2-[3-(4-methyl-piperazin-1-yl)-phenyl]-3H-benzoimidazol-5-yl}-(4-pyridin-3-yl-pyrimidin-2-yl)-amine] | 1000 to 10000 |
| Cc1cc2c(cc1Nc1nc(-c3ccncc3)cs1)nc(-c1cccc(N3CCN(C)CC3)c1)n2C [Compound 096, {1,6-Dimethyl-2-[3-(4-methyl-piperazin-1-yl)-phenyl]-1H-benzoimidazol-5-yl}-(4-pyridin-4-yl-thiazol-2-yl)-amine] | 1000 to 10000 |
| Cc1cc2[nH]c(-c3cncn3C)nc2cc1Nc1nc(-c2ccncc2)cs1 [Compound 080, [6-Methyl-2-(3-methyl-3H-imidazol-4-yl)-1H-benzoimidazol-5-yl]-(4-pyridin-4-yl-thiazol-2-yl)-amine] | 1000 to 10000 |
| Cc1cc2nc(-c3cccnc3)[nH]c2cc1Nc1nccc(-c2cccnc2)n1 [Compound 014, (6-Methyl-2-pyridin-3-yl-3H-benzoimidazol-5-yl)-(4-pyridin-3-yl-pyrimidin-2-yl)-amine] | 1000 to 10000 |
| Cc1cc2nc(-c3ccc(CN4CCN(C)CC4)cc3)[nH]c2cc1Nc1nc(-c2cncnc2)cs1 [Compound 065, {6-Methyl-2-[4-(4-methyl-piperazin-1-ylmethyl)-phenyl]-3H-benzoimidazol-5-yl}-(4-pyrimidin-5-yl-thiazol-2-yl)-amine] | 1000 to 10000 |
| Cc1cc2nc(-c3cccc(OC(F)(F)F)c3)[nH]c2cc1Nc1nc(-c2cncnc2)cs1 [Compound 063, [6-Methyl-2-(3-trifluoromethoxy-phenyl)-3H-benzoimidazol-5-yl]-(4-pyrimidin-5-yl-thiazol-2-yl)-amine] | 1000 to 10000 |
| Cc1cc2nc(-c3cncc(C(F)(F)F)c3)[nH]c2cc1Nc1nccc(-c2cccnc2)n1 [Compound 042, [6-Methyl-2-(5-trifluoromethyl-pyridin-3-yl)-3H-benzoimidazol-5-yl]-(4-pyridin-3-yl-pyrimidin-2-yl)-amine] | 1000 to 10000 |
| Cc1cc2nc(CN3CCOCC3)[nH]c2cc1Nc1ncc(-c2ccncc2)o1 [Compound 055, (6-Methyl-2-morpholin-4-ylmethyl-3H-benzoimidazol-5-yl)-(5-pyridin-4-yl-oxazol-2-yl)-amine] | 1000 to 10000 |
| Cc1cc2nc(Cc3cccc(F)c3)[nH]c2cc1Nc1ncc(-c2ccncc2)o1 [Compound 052, [2-(3-Fluoro-benzyl)-6-methyl-3H-benzoimidazol-5-yl]-(5-pyridin-4-yl-oxazol-2-yl)-amine] | 1000 to 10000 |
| COc1cccc(-c2nc3cc(Nc4nc(-c5ccc(C#N)cc5)cs4)c(C)cc3[nH]2)c1 [Compound 128, 4-{2-[2-(3-Methoxy-phenyl)-6-methyl-1H-benzoimidazol-5-ylamino]-thiazol-4-yl}-benzonitrile] | ≤ 1000 |
| CCn1c(-c2cccc(C(F)F)c2)nc2cc(Nc3nc(-c4ccncc4)cs3)c(C)cc21 [Compound 103] | ≤ 1000 |
| Cc1cccc(-c2nc3cc(C)c(Nc4nc(-c5cccnc5)cs4)cc3[nH]2)c1 [Compound 011, (6-Methyl-2-m-tolyl-3H-benzoimidazol-5-yl)-(4-pyridin-3-yl-thiazol-2-yl)-amine] | ≤ 1000 |
| Cc1cc2nc(-c3cccc(C(F)F)c3)[nH]c2cc1Nc1nc(-c2cccnc2)cs1 [Compound 025, [2-(3-Difluoromethyl-phenyl)-6-methyl-3H-benzoimidazol-5-yl]-(4-pyridin-3-yl-thiazol-2-yl)-amine] | ≤ 1000 |
| Cc1cc2nc(-c3ccc(C(F)(F)F)cc3)[nH]c2cc1Nc1nc(-c2ccc(C#N)cc2)cs1 [Compound 076, 4-{2-[6-Methyl-2-(4-trifluoromethyl-phenyl)-3H-benzoimidazol-5-ylamino]-thiazol-4-yl}-benzonitrile] | 1000 to 10000 |
| Cc1cc2nc(-c3cccc(OC(F)(F)F)c3)[nH]c2cc1Nc1nc(-c2ccc(C#N)cc2)cs1 [Compound 075, 4-{2-[6-Methyl-2-(3-trifluoromethoxy-phenyl)-3H-benzoimidazol-5-ylamino]-thiazol-4-yl}-benzonitrile] | ≤ 1000 |
| Cc1cc2nc(Cc3ccc(C(F)(F)F)cc3)[nH]c2cc1Nc1ncc(-c2ccncc2)o1 [Compound 054, [6-Methyl-2-(4-trifluoromethyl-benzyl)-3H-benzoimidazol-5-yl]-(5-pyridin-4-yl-oxazol-2-yl)-amine] | 1000 to 10000 |
| C#Cc1cccc(-c2nc3cc(Nc4nc(-c5cccnc5)cs4)c(C)cc3[nH]2)c1 [Compound 139, [2-(3-Ethynyl-phenyl)-6-methyl-1H-benzoimidazol-5-yl]-(4-pyridin-3-yl-thiazol-2-yl)-amine] | ≤ 1000 |
| Cc1cc2nc(-c3ccc(CN4CCN(C)CC4)cc3)[nH]c2cc1Nc1nc(-c2ccncc2)cs1 [Compound 048, {6-Methyl-2-[4-(4-methyl-piperazin-1-ylmethyl)-phenyl]-1H-benzoimidazol-5-yl}-(4-pyridin-4-yl-thiazol-2-yl)-amine] | 1000 to 10000 |
| Cc1cc2nc(-c3cc(CN4CCCC4)cc(C(F)(F)F)c3)[nH]c2cc1Nc1nc(-c2cccnc2)cs1 [Compound 023, [6-Methyl-2-(3-pyrrolidin-1-ylmethyl-5-trifluoromethyl-phenyl)-3H-benzoimidazol-5-yl]-(4-pyridin-3-yl-thiazol-2-yl)-amine] | 1000 to 10000 |
| Cc1cc2[nH]c(-c3cccc(C(C)(C)C)c3)nc2cc1Nc1nc(-c2ccncc2)cs1 [Compound 153, [2-(3-tert-Butyl-phenyl)-6-methyl-1H-benzoimidazol-5-yl]-(4-pyridin-4-yl-thiazol-2-yl)-amine] | ≤ 1000 |

Next, values leading:

| IC50 [nM] | SMILES |
| --- | --- |
| ≤ 1000 | Cc1cc2c(cc1Nc1nc(-c3ccncc3)cs1)nc(-c1cccc(N(C)C)c1)n2C [Compound 133] |
| ≤ 1000 | Cc1cccc(-c2nc3cc(Nc4nc(-c5ccnc(Cl)c5)cs4)c(C)cc3[nH]2)c1 [Compound 107, [4-(2-Chloro-pyridin-4-yl)-thiazol-2-yl]-(6-methyl-2-m-tolyl-1H-benzoimidazol-5-yl)-amine] |
| ≤ 1000 | Cc1cc2c(cc1Nc1nc(-c3ccncc3)cs1)nc(-c1cccc(S(C)(=O)=O)c1)n2C [Compound 120, [2-(3-Methanesulfonyl-phenyl)-1,6-dimethyl-1H-benzoimidazol-5-yl]-(4-pyridin-4-yl-thiazol-2-yl)-amine] |
| ≤ 1000 | CCn1c(-c2cccc(OC(F)(F)F)c2)nc2cc(Nc3nc(-c4cccnc4)cs3)c(C)cc21 [Compound 115, [1-Ethyl-6-methyl-2-(3-trifluoromethoxy-phenyl)-1H-benzoimidazol-5-yl]-(4-pyridin-3-yl-thiazol-2-yl)-amine] |
| ≤ 1000 | Cc1cc2[nH]c(-c3cccc(C(C)C)c3)nc2cc1Nc1nc(-c2ccc(C#N)cc2)cs1 [Compound 143, 4-{2-[2-(3-Isopropyl-phenyl)-6-methyl-1H-benzoimidazol-5-ylamino]-thiazol-4-yl}-benzonitrile] |
| ≤ 1000 | Cc1cc2nc(-c3cccc(C(F)(F)F)c3)[nH]c2cc1Nc1nc(-c2ccc(C#N)cc2)cs1 [Compound 070, 4-{2-[6-Methyl-2-(3-trifluoromethyl-phenyl)-3H-benzoimidazol-5-ylamino]-thiazol-4-yl}-benzonitrile] |
| ≤ 1000 | Cc1cc2c(cc1Nc1nc(-c3ccc(C#N)cc3)cs1)nc(-c1cc(F)cc(C(F)(F)F)c1)n2C [Compound 138, 4-{2-[2-(3-Fluoro-5-trifluoromethyl-phenyl)-1,6-dimethyl-1H-benzoimidazol-5-ylamino]-thiazol-4-yl}-benzonitrile] |
| ≤ 1000 | Cc1cc2nc(-c3ccc(C(F)(F)F)cc3)[nH]c2cc1Nc1nc(-c2ccncc2)cs1 [Compound 050, [6-Methyl-2-(4-trifluoromethyl-phenyl)-3H-benzoimidazol-5-yl]-(4-pyridin-4-yl-thiazol-2-yl)-amine] |
| ≤ 1000 | Cc1cc2nc(-c3cccc(OC(F)(F)F)c3)[nH]c2cc1Nc1nc(-c2cccnc2)cs1 [Compound 026] |
| ≤ 1000 | CCn1c(-c2cccc(C(F)(F)F)c2)nc2cc(Nc3nc(-c4ccncc4)cs3)c(C)cc21 [Compound 105, [1-Ethyl-6-methyl-2-(3-trifluoromethyl-phenyl)-1H-benzoimidazol-5-yl]-(4-pyridin-4-yl-thiazol-2-yl)-amine] |
| ≤ 1000 | Cc1cc2nc(-c3cccc(Cl)c3)[nH]c2cc1Nc1nc(-c2cccnc2)cs1 [Compound 032, [2-(3-Chloro-phenyl)-6-methyl-3H-benzoimidazol-5-yl]-(4-pyridin-3-yl-thiazol-2-yl)-amine] |
| ≤ 1000 | Cc1cc2c(cc1Nc1nc(-c3ccncc3)cs1)nc(-c1ccc(C(F)F)cc1)n2C [Compound 094, [2-(4-Difluoromethyl-phenyl)-1,6-dimethyl-1H-benzoimidazol-5-yl]-(4-pyridin-4-yl-thiazol-2-yl)-amine] |
| ≤ 1000 | Cc1cc2nc(-c3cccc(OC(F)(F)F)c3)[nH]c2cc1Nc1nc(-c2ccc(C(N)=O)cc2)cs1 [Compound 073, 4-{2-[6-Methyl-2-(3-trifluoromethoxy-phenyl)-3H-benzoimidazol-5-ylamino]-thiazol-4-yl}-benzamide] |
| ≤ 1000 | Cc1cc2[nH]c(-c3cccc(C(F)(F)F)c3)nc2cc1Nc1nc(-c2cccc(C#N)c2)cs1 [Compound 130, 3-{2-[6-Methyl-2-(3-trifluoromethyl-phenyl)-1H-benzoimidazol-5-ylamino]-thiazol-4-yl}-benzonitrile] |
